This note sets out measurements from US20140234868A1, “USE FOR GLYCOLIPOPROTEIN GINTONIN, ISOLATED AND IDENTIFIED FROM GINSENG, AS A NATURAL MEDICAL-PLANT DERIVED LIGAND” (KONKUK UNIVERSITY INDUSTRIAL COOPERATION CORP., priority 2011, published 2014).

The test system of test [1] is LPA receptor-null B103 cells (empty vector). The experiment in a line: Intracellular free Ca2+ (Fura-2AM) in B103 cells transfected with empty vector. The following applies: B103 cells not expressing LPA3 receptor. It is filed as cell-based, rat. The text has this:
LPA family receptors are endogenous to cells of most organs. B103 rat neuroblastoma cells, known as LPA receptor-null cells (Valentine et al., Biochim Biophys Acta 1780. 597-605) were transiently transfected with a plasmid (vector) carrying one of genes coding for LPA1(edg-2), LPA2(edg-4), LPA3(edg-7), LPA4, LPA5 and LPA6 receptors or a plasmid carrying none of them (empty vector). Two or three days after transfection, the cells are suspended, and made permeable. Then, the permeable cells are treated with Fura-2AM, a fluorescent dye binding to calcium, and then with gintonin, followed by spectrofluorephotometry to examine whether gintonin induces an increase in intracellular free Ca^2+ level. […]
Briefly, Fura 2-AM loaded cells were diluted with an experimental medium to a final density of 2˜4×10^6 cells/mL, and transferred to polystyrene cuvettes (Elkay Ultra-VU). […] Emission was detected at 510 nm Excitation and emission slit widths were 5 nm Background calibration was performed as described by Jørgensen et al. […]

For test [2], the target named is T1, LPA3 receptor (Homo sapiens, UniProt Q9UBY5).
T1 construct: host or cells: B103 rat neuroblastoma cells
T1 sequence (Q9UBY5 1-353): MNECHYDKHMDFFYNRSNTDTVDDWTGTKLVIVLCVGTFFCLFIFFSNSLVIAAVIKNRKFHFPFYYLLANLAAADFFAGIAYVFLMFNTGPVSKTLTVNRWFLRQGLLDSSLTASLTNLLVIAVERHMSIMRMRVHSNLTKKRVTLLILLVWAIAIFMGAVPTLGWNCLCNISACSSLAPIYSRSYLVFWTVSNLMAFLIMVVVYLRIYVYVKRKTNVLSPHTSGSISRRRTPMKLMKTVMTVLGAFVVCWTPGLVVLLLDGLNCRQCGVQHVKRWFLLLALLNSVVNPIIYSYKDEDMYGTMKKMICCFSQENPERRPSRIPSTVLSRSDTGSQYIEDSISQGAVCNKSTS
The experiment in a line: Intracellular free Ca2+ (Fura-2AM) in LPA3-expressing B103 cells. The following applies: LPA3 receptor-expressing B103 cells; read-out: EC50, intracellular calcium increase. It is filed as cell-based. The text has this:
LPA family receptors are endogenous to cells of most organs. B103 rat neuroblastoma cells, known as LPA receptor-null cells (Valentine et al., Biochim Biophys Acta 1780. 597-605) were transiently transfected with a plasmid (vector) carrying one of genes coding for LPA1(edg-2), LPA2(edg-4), LPA3(edg-7), LPA4, LPA5 and LPA6 receptors or a plasmid carrying none of them (empty vector). Two or three days after transfection, the cells are suspended, and made permeable. Then, the permeable cells are treated with Fura-2AM, a fluorescent dye binding to calcium, and then with gintonin, followed by spectrofluorephotometry to examine whether gintonin induces an increase in intracellular free Ca^2+ level.
(1) preparing large quantities of plasmids carrying respective LPA family receptor genes and an empty plasmid carrying none of them through amplification and purification (maxi-preparation); (2) verifying the expression of LPA receptors wherein B103 cells are transfected with haematoglutin (HA)-tagged LPA receptors, and then subjected to Western blotting analysis using an anti-HA primary antibody and a horseradish peroxidase (HRP)-conjugated secondary antibody to develop a color; (3) verifying the expression of LPA receptors wherein B1-3 cells are transfected with haematoglutin (HA)-tagged LPA receptors, and then subjected to confocal laser microscopy using an anti-HA antibody and a fluorescence dye Cy3-conjugated secondary antibody; (4) transfecting the empty plasmid and each of the plasmids carrying LPA family receptor genes into B103 cells; (5) treating the transfected B103 cells with trypsin (0.05% trypsin with EDTA, w/v) 2-3 days post-transfection, to give a cell suspension; (6) culturing the suspended B103 cells with Fura-2AM (2.5 μM); and (7) treating the suspended B103 cells with gintonin and quantifying a change in intracellular free Ca^2+ level in a cuvette by spectrofluorephotometry using Fura-2AM.
Human LPA (lysophosphatidic acid) receptor subtypes, orphan GPCRs (G protein coupled receptors) and plasmids carrying GPCRs were purchased from Missouri S&T resource Center (www.cDNA.org).
The transient transfection of LPA receptor subtypes was carried out with the aid of Lipofectamine 2000 of Invitrogen. A plasmid (10.8 μg) carrying each LPA receptor (LPA1, LPA2, LPA3, LPA4, LPA5, and LPA6) was transfected into B103 cells grown in 10-cm dishes, and incubated for 2 days prior for use in experiments.
In this Example, gintonin, or ginsenoside Rb1 or Rg1 was examined for its ability to induce a transient increase of [Ca^2+]i in Fura-2AM-loaded B103 cells which were transfected with LPA receptors and in Fura-2AM-loaded B103 cells which were not transfected with LPA receptors. To this end, B103 cells (2˜4×10^6/ml) pre-treated with Fura-2AM were suspended in a 1.5 mM Ca^2+-containing buffer or Ca^2+-free buffer, and incubated 37° C. for 30 min, followed by analyzing intracellular calcium levels in the B103 cells in the presence of gintonin or ginsenosides.
Briefly, B103 cells (1˜2×10^6/ml) were mixed with 2.5 μM Fura 2-AM in a Ca^2+ buffer (pH 7.4) containing NaCl 120 mM, KCl 5 mM, MgCl2 1 mM, CaCl2 1.5 mM, glucose 10 mM, and HEPES 25 mM, and a Ca^2+ free buffer (pH 7.4) containing NaCl 120 mM, KCl 5 mM, MgCl2 1 mM, EGTA 0.2 mM, glucose 10 mM, and HEPES 25 mM at 37° C. for 30 min in water bath with shaking according to the Jørgensen method, and washed three times with Ca^2+ buffer or Ca^2+ free buffer to remove excess Fura-2AM.
[Ca^2+]i was estimated in Fura 2AM-loaded cells in suspension using an RF-5300PC intracellular ion measurement system (Shimadzu Corporation, Japan).
Briefly, Fura 2-AM loaded cells were diluted with an experimental medium to a final density of 2˜4×10^6 cells/mL, and transferred to polystyrene cuvettes (Elkay Ultra-VU). The cells were stirred using Teflon-coated magnets, and the cuvette housing was thermostatically controlled at 37° C. The excitation wavelengths were alternated between 340 and 380 nm under computer control. […]

For test [3], the system named is LPA receptor. Nature of the test: Gintonin-induced intracellular Ca2+ increase in LPA receptor-expressing B103 cells (subtype not named). It counts as cell-based, human. The following applies: pretreated. The text has this:
Optionally, the method may further comprise (8) pre-treating the suspended B103 cells with LPA receptor antagonists and LPA receptor-mediated signaling-relevant drugs (e.g., pertussis toxin, PLC inhibitors, IP3 receptor antagonists) to examine whether the cells decrease or increase in intracellular free Ca^2+, prior to treatment with gintonin; (9) performing site-directed mutagenesis to identify an amino acid of LPA receptors with which gintonin interact to activate the LPA; and (10) examining whether gintonin activates orphan GPCRs including GPR35 and GPR87, and free fatty acid GPCRs including GPR40, GPR41, GPR43 and GPR120, all known for activation by LPA.
In this Example, gintonin, or ginsenoside Rb1 or Rg1 was examined for its ability to induce a transient increase of [Ca^2+]i in Fura-2AM-loaded B103 cells which were transfected with LPA receptors and in Fura-2AM-loaded B103 cells which were not transfected with LPA receptors. […]
Briefly, Fura 2-AM loaded cells were diluted with an experimental medium to a final density of 2˜4×10^6 cells/mL, and transferred to polystyrene cuvettes (Elkay Ultra-VU). […] Emission was detected at 510 nm Excitation and emission slit widths were 5 nm Background calibration was performed as described by Jørgensen et al.

Test [4] concerns NMDA receptors (NR1 and NR2). The experiment in a line: NMDA receptor activity in Xenopus oocytes, two-electrode voltage clamp. The following applies: Kil6425 10 μM, 2-APB 100 μM, BAPTA 100 μM 3 h. It is filed as cell-based. On the procedure: cDNAs of NMDA receptor subunits (NR1 and NR2) were employed (Zheng et al., J Neurosci. 17, 8676-8686, 1997). cDNAs (100 ng/40 nl) corresponding to respective NMDA receptor subunits (NR1 and NR2) were injected into animal or vegetal poles of oocytes by use of a […] (VWR Scientific, USA) and incubated for 4-5 days after injection (Zheng et al., J Neurosci. 17, 8676-8686, 1997).
(§1) Xenopus laevis frogs were obtained from Xenopus I (Ann Arbor, Mich.). Their care and handling were in accordance with the highest standards of institutional guidelines. To isolate oocytes, the frogs were operated on under anesthesia with an aerated solution of 3-aminobenzoic acid ethyl ester. Oocytes were separated by treatment with collagenase and agitation for two hours in a Ca^2+-free medium containing 82.5 mM NaCl, 2 mM KCl, 1 mM MgCl2, 5 mM HEPES, 2.5 mM sodium pyruvate, 100 units/ml penicillin and 100 μg/ml streptomycin.
Stage V-VI oocytes were collected and stored in ND96 (96 mM NaCl, 2 mM KCl, 1 mM MgCl2, 1.8 mM CaCl2, and 5 mM HEPES, pH 7.4) supplemented with 50 μg/ml gentamicin. This oocyte containing solution was maintained at 18° C. with continuous gentle shaking while the ND96 medium was changed to a fresh one every day.
Two-electrode voltage-clamp recordings were obtained from individual oocytes placed in a small Plexiglas net chamber (5 ml). Electrophysiological experiments were performed using microelectrodes filled with 3 M KCl (resistance of 0.2-0.7 MΩ) and an Oocyte Clamp amplifier (OC-725C; Warner Instrument, Hamden, Conn.). For physiological recordings of NMDA receptor activity, oocytes were first perfused with Mg^2+-free ND96 (mM: 96 NaOH, 2 KOH, 0.3 CaCl2, 5 HEPES pH 7.6 with methanesulfonic acid). Then, the oocytes were clamped at −60 mV holding potential, followed by recoding NMDA currents (induced by administering […]) (Zheng et al., J Neurosci. 17, 8676-8686, 1997; Chang and Kuo, J Neurosci. 28, 1546-1556, 2008).
A general note: Two-electrode voltage clamp holds a large cell at a set potential and records current.

The subject of test [5] is endogenous CaCC. The experiment in a line: Endogenous Ca2+-activated channel (CaCC) activation in Xenopus oocytes. It counts as cell-based, Xenopus laevis. Conditions: Kil6425 10 μM; U73122 1 μM; 2-APB 100 μM; BAPTA 100 μM 3 h.
The test system of test [6] is BKCaK+ channels. The experiment in a line: BKCa K+ channel activity in Xenopus oocytes, two-electrode voltage clamp. It counts as cell-based. Conditions: 2-APB 100 μM, BAPTA-AM, PMA 1 μM; for effect on gintonin-induced BKCaK+ channel activation: Kil6425 10 μM, U73122, U73343 1 μM; for effect on ginsenoside Rg3-induced BKCaK+ channel activity: U73122 1 μM. How it is done:
as §1
Stage V-VI oocytes were collected and stored in ND96 (96 mM NaCl, 2 mM KCl, 1 mM MgCl2, 1.8 mM CaCl2, and 5 mM HEPES, pH 7.4) supplemented with 50 μg/ml gentamicin. This oocyte containing solution was maintained at 18° C. with continuous gentle shaking while the ND96 medium was changed with a fresh one every day.
Two-electrode voltage-clamp recordings were obtained from individual oocytes placed in a small Plexiglas net chamber (5 ml). Electrophysiological experiments were performed using microelectrodes filled with 3 M KCl (resistance of 0.2-0.7 MΩ) and an Oocyte Clamp amplifier (OC-725C; Warner Instrument, CT, USA) to record BKc K^+ channel activity at room temperature (Choi et al., Mol Cells 31, 133-140, 2011). For physiological recordings of BKCaK^+ channel activity, oocytes were first perfused with a Cl^−- and Ca^2+-free solution (mM: 96 NaOH, 2 KOH, 8 Mg-gluconate, 5 HEPES, 5 EGTA, pH 7.4 with methanesulfonic acid) supplemented with 500 μM anthracene-9-carboxylic acid, a Cl^− channel blocker, to block endogenous Cl-channels (Lu et al., J. Biol. Chem. 265, 16190-16194.1990). Then, the oocytes were clamped at −80 mV holding potential, followed by step depolarization from the holding potential to +40 mV at regular intervals of […] for 400 ms to record outward currents.

For the molecule “lysophosphatidic acid [LPA, reference compound]”, the “increase of intracellular calcium level” value in test [1] was “did not induce the increase of intracellular calcium level”. In addition, the EC50 – broadly, the midpoint of the concentration-response curve – in test [2] was determined as 58.9 ± 5.54 nM.
As to `O=C(O)CN(CC(=O)O)c1ccccc1OCCOc1ccccc1N(CC(=O)O)CC(=O)O` [BAPTA], in test [3], the “effect of pretreatment on gintonin-induced intracellular calcium increase” value is listed as “became invalid”. Moreover, the “effect on NMDA-induced inward current” value in test [4] (U73122 1 μM) is reported as “normal NMDA-induced inward currents”. In test [4] (gintonin 1 μg/ml, U73122, U73343 1 μM, genistein 10 μM, PP2, PP3 30 μM), the “effect on gintonin-induced NMDA receptor activation” value is “reduction”. Further, the “effect on gintonin-induced CaCC activation” value in test [5] is “a reduction in gintonin-induced CaCC activation”. Moreover, in test [6], the “effect on gintonin-induced BKCaK+ channel activation” value is recorded as “a reduction in BKCaK^+ channel activation” and the “effect on ginsenoside Rg3-induced BKCaK+ channel activity” value is given as “not blocked”.
For the molecule `CCCCCCCCCCCCCC(=O)O[C@@H]1[C@@H](C)[C@@]2(O)[C@@H](C=C(CO)C[C@]3(O)C(=O)C(C)=C[C@@H]23)[C@@H]2C(C)(C)[C@]12OC(C)=O` [PMA], the “effect of pretreatment on gintonin-induced intracellular calcium increase” value in test [3] is on record as “blocked”. Besides, in test [6], the “effect on gintonin-induced BKCaK+ channel activation” value is given as “caused the gintonin-induced activation of BKCaK^+ channels to disappear” and the “effect on ginsenoside Rg3-induced BKCaK+ channel activity” value is on record as “had no influences on the activity of ginsenoside Rg3”.
